What was measured:
[1] = tested on: patients with refractory CRS; assay: Part I prospective study, Rhinotopic therapy spray: Lund-Kennedy scores, clinical course, side effects; format: in vivo
Text: The first part is a prospective study that includes 20 patients with refractory CRS, treated in with Rhinotopic therapy spray at a tertiary rhinology fellowship-training program. The patients were placed on the rhinotopic protocol only after they failed extended standard medical therapy. The latter is defined, for the purpose of this study, as three or more repeated courses of different oral antibiotics along with nasal corticosteroids sprays and nasal saline rinses (each lasting at least 3 weeks), within a 6 month-period, along with oral corticosteroids when indicated (in case of significant polyposis or Samter's triad). Patients who failed extended medical therapy were given the option of revision sinus surgery or rhinotopic therapy; all 20 patients chose rhinotopic therapy and were consented accordingly. […]
CT scans were reviewed prior to treatment and evaluated following the Lund-Mackay radiologic scoring system (9). Clinical response to treatment was monitored using the Lund-Kennedy (LK) symptoms score and the LK endoscopic appearance score (9). […] The LK symptoms score evaluated nasal congestion and obstruction, headache, facial pain, alteration I the sense of smell, nasal discharge, and sneezing. The LK endoscopic appearance score evaluated the presence or absence of nasal polyps, edema, discharge, scarring, and crusting on each side of the nasal cavity. […]

[2] = prolonged intravenous use; cited from earlier work

Row | SMILES | patients who developed an allergic reaction (skin rash over the upper lip) ([1]; nebulized, stopped the treatment and dropped out) | side effects [2] | clinical response ([1]; intravenous, one patient, before the rhinotopic protocol)
1 | CN[C@H](CC(C)C)C(=O)N[C@H]1C(=O)N[C@@H](CC(N)=O)C(=O)N[C@H]2C(=O)N[C@H]3C(=O)N[C@H](C(=O)N[C@H](C(=O)O)c4cc(O)cc(O)c4-c4cc3ccc4O)[C@H](O)c3ccc(c(Cl)c3)Oc3cc2cc(c3O[C@@H]2O[C@H](CO)[C@@H](O)[C@H](O)[C@H]2O[C@H]2C[C@](C)(N)[C@H](O)[C@H](C)O2)Oc2ccc(cc2Cl)[C@H]1O [Vancomycin] | One | toxicity to the kidneys and the inner ear | –
2 | CC(C)(O/N=C(\C(=O)N[C@@H]1C(=O)N2C(C(=O)[O-])=C(C[n+]3ccccc3)CS[C@H]12)c1csc(N)n1)C(=O)O [ceftazidine] | – | – | improved transiently but their symptoms recurred

Source: patent US20140336463A1, “Rhinotopic therapy for the treatment of chronic rhinosinusitis biofilm disruption, treatment of mucosal granulation and sinus polyps” (priority 2009, published 2014)
